Measured values published in patent EP1379135B1, “FORMULATIONS COMPRISING ENTRAPPED ACTIVE INGREDIENTS AND USES THEREOF” (THE SCRIPPS RESEARCH INSTITUTE, priority 2001, dated 2002).
Entries after “also recorded” stand apart in the source; their conditions may differ.

Columns and labels:
[1] = system: chondrocytes; test: Cell viability, MTT assay; format: cell-based, human; details: up to 20 mM
[2] = system: IL-1β induced NO production in normal human articular chondrocytes; test: IL-1β induced NO production in cultured chondrocytes (NO2 accumulation, Griess reaction); format: cell-based; details: for inhibitory activity on IL-1β induced NO production: concentration of 10 mM
Protocol: Chondrocytes were isolated from the cartilage by collagenase digestion and maintained in continuous monolayer cultures in DMEM containing 10% fetal bovine serum (FBS). Cell viability after chondrocyte isolation by collagenase digestion of normal cartilage was >95%. This level was maintained for at least 96 hrs post mortem. […] Experiments reported were performed with primary or first passage cells.
Chondrocytes were plated at 40,000 cells/well in 96-well plates in the presence of 1 % FBS. After 48 h, the medium was changed, and the cells were stimulated with IL-1β (Sigma) at a concentration of 5 ng/ml for 24 h. NO production was detected as NO2 accumulation in the culture supernatants by the Griess reaction as described elsewhere (Heval et al., (1994) Methods Enzymol. 233:250). IL-6 in the culture supernatants was measured by ELISA (R&D Systems, Minneapolis, MN) in accordance with the supplier's protocol.

[3] = system: TNFα induced nitric oxide (NO) production in normal human articular chondrocytes; test: TNFα induced NO production in chondrocytes; format: cell-based
[4] = system: bradykinin-induced pain; test: Bradykinin-induced pain after intra-articular administration (walking behavior pain score); format: in vivo, Wistar rats; details: intra-articular administration in rats; Figure 6
Protocol: The purpose of this study was to investigate the analgesic effects of GlcNAc with or without liposomal formulations, injected intra-articularly into the joint of Wistar rats. Pain was induced by intra-articular administration of bradykinin. Adult male Wistar rats with a weight range from 220g to 250g were obtained from Laboratory Animals Centre, National University of Singapore. Bradykinin and GlcNAc were obtained from Sigma. The liposomes were prepared as described above.
50 µl of GlcNAc solution or an GIcNAc formulated liposome suspension was injected into a rat joint cavity. An equal volume of saline was given intra-articularly as a control. 50 µl of bradykinin (60 µg/ml or at the indicated concentration) was given intra-articularly at different time points following the administration of GlcNAc.
Changes in walking behavior caused by intra-articular injection of bradykinin were used to define induced pain criteria in rats. The methods used to observe the pain response are defined in Table 2. The degree of pain was assigned a score according to the criteria in Table 3.

| Molecule | NO production triggered by IL-1β [2] | TNFα induced nitric oxide (NO) production [3] | inhibitory activity on IL-1β induced NO production [2] | other results |
| --- | --- | --- | --- | --- |
| N[C@H]1C(O)O[C@H](CO)[C@@H](O)[C@@H]1O (stereo partly shown) [GA, glucosamine] | suppressed NO production; also recorded: measurably inhibited NO production in the lower millimolar range | inhibit |  | cell viability [1]: Neither GA nor GlcNAc at dosages up to 20 mM affected cell viability; concentrations not effective in inhibiting NO production [2]: below 1 mM; IC50 ([2]; Homo sapiens, Chondrocyte, IL-1β 5 ng/ml for 24 h, GlcNAc vs GA p < 0.01, read-out: IC50 (inhibition of NO production)): 14.9 ± 2.1 mM |
| CC(=O)N[C@H]1[C@H](O[C@H]2[C@H](O)[C@@H](NC(C)=O)C(O)O[C@@H]2CO)O[C@H](CO)[C@@H](O)[C@@H]1O (stereo partly shown) [GlcNAc dimers, N,N'-diacetylchitobiose] | did not express inhibitory activity |  |  |  |
| CC(=O)N[C@H]1C(O)O[C@H](CO)[C@H](O)[C@@H]1O (stereo partly shown) [N-acetylgalactosamine] |  |  | demonstrated inhibitory activity |  |
| CC(=O)N[C@@H]1C(O)O[C@H](CO)[C@@H](O)[C@@H]1O (stereo partly shown) [N-acetylmannosamine] |  | did not inhibit | did not inhibit |  |
| O=C[C@H](O)[C@@H](O)[C@H](O)[C@H](O)C(=O)O [glucuronic acid] |  | did not inhibit | did not inhibit |  |
| CC(=O)N[C@H]1[C@H](O[C@H]2[C@H](O)[C@@H](NC(C)=O)C(O)O[C@@H]2CO)O[C@H](CO)[C@@H](O[C@@H]2O[C@H](CO)[C@@H](O)[C@H](O)[C@H]2NC(C)=O)[C@@H]1O (stereo partly shown) [trimers, N,N',N"-triacetylchitotriose] | did not express inhibitory activity |  |  |  |
| Bradykinin (RPPGFSPFR; Bradykinin; UniProt P01042 381-389, looked up) |  |  |  | pain scores, dose response [4]: Higher pain scores correlate with the amount of injected Bradykinin |
